# What was measured:
# [1] = Antiproliferative activity against human PANC1 cells after 96 hrs by WST-8 assay; assay type: functional, cell-based; conditions: PANC-1, 96 h
# [2] = system: A549; assay: Antiproliferative activity against human A549 cells after 120 hrs by WST-8 assay; assay type: functional, cell-based; conditions: A549, 120 h
# [3] = system: A549; assay: Ratio of (+)-Neopeltolide IC50 to compound IC50 for human A549 cells after 120 hrs by WST-8 assay; assay type: functional
SMILES,IC50 [1],IC50 [2],Ratio IC50 [3]
C/C=C\c1nc(CC/C=C\C(=O)O[C@H]2C[C@@H]3CC(=O)O[C@@H](CCC)C[C@@H](OC)C/C(C)=C\[C@H](C2)O3)co1,440 nM,740 nM,
CCC[C@H]1C[C@@H](OC)C/C(C)=C\[C@@H]2C[C@@H](OC(=O)/C=C\CCc3coc(/C=C\CNC(=O)OC)n3)C[C@H](CC(=O)O1)O2,2.4 nM,0.5 nM,3
CCC[C@H]1C[C@@H](OC)C/C(C)=C\[C@@H]2C[C@@H](OC(=O)CCCCc3coc(/C=C\CNC(=O)OC)n3)C[C@H](CC(=O)O1)O2,26 nM,110 nM,
CCC[C@H]1C[C@@H](OC)C/C(C)=C\[C@@H]2C[C@@H](OC(=O)/C=C\CCc3coc(CCCNC(=O)OC)n3)C[C@H](CC(=O)O1)O2,200 nM,400 nM,
CCC[C@H]1C[C@@H](OC)C/C(C)=C\[C@@H]2C[C@@H](OC(=O)CCCCc3coc(CCCNC(=O)OC)n3)C[C@H](CC(=O)O1)O2,3200 nM,> 10000 nM,
CCC[C@H]1C[C@@H](OC)C/C(C)=C\[C@@H]2C[C@@H](OC(=O)/C(C)=C\CCc3coc(/C=C\CNC(=O)OC)n3)C[C@H](CC(=O)O1)O2,2.6 nM,2.5 nM,
CCC[C@H]1C[C@@H](OC)C/C(C)=C\[C@@H]2C[C@@H](OC(=O)/C=C(/C)CCc3coc(/C=C\CNC(=O)OC)n3)C[C@H](CC(=O)O1)O2,6.4 nM,6.3 nM,
CCC[C@H]1C[C@@H](OC)C/C(C)=C\[C@@H]2C[C@@H](OC(=O)c3ccccc3CCc3coc(/C=C\CNC(=O)OC)n3)C[C@H](CC(=O)O1)O2,75 nM,500 nM,
CCC[C@H]1C[C@@H](OC)C/C(C)=C\[C@@H]2C[C@@H](OC(=O)/C=C\CCc3coc(C=C(C)C)n3)C[C@H](CC(=O)O1)O2,2800 nM,3900 nM,
